Test results taken from patent publication US20260176320A1, “MODULATORS OF G-PROTEIN COUPLED RECEPTORS” (priority 2018, published 2026).
Where two headings read alike, the source gives them in different places.

Tests used:
GLP-1R = GLP-1R (Homo sapiens, UniProt P43220); assay: HitHunter cAMP assay (GLP-1R); format: cell-based; conditions: cAMP; for EC50: EC50 GLP-1R/nM; for Emax: read-out: (Emax) GLP-1R
In short: (§1)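 cAMP, luminescence read: agonist 22-pt 2× dilution in DMSO, duplicate, 30 min RT on 10,000 cells/well in 1×HBSS/10 mM HEPES/625 μM IBMX/0.2% BSA; anti-cAMP reagent 1 h RT dark, then O/N RT dark before read.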

GIP-R = target: T1, GIP-R (Homo sapiens, UniProt P48546); assay: HitHunter cAMP assay (GIP-R); format: cell-based; conditions: cAMP; for EC50: EC50 GIP-R/nM; for Emax: read-out: (Emax) GIP-R
T1 sequence (P48546 22-466): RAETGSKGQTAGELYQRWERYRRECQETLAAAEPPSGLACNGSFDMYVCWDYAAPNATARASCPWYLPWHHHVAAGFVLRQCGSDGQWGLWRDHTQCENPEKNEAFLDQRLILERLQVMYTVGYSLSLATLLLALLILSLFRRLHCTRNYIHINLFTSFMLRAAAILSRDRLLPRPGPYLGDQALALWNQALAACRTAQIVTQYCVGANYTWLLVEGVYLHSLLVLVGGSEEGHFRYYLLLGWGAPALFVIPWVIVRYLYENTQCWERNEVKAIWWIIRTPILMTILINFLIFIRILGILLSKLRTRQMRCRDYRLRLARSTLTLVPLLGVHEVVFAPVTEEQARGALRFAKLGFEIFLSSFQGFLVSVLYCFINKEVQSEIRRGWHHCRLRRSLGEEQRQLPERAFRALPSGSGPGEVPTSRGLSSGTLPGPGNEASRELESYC
In short: as §1

Sequence of GLP-1R (P43220 24-463): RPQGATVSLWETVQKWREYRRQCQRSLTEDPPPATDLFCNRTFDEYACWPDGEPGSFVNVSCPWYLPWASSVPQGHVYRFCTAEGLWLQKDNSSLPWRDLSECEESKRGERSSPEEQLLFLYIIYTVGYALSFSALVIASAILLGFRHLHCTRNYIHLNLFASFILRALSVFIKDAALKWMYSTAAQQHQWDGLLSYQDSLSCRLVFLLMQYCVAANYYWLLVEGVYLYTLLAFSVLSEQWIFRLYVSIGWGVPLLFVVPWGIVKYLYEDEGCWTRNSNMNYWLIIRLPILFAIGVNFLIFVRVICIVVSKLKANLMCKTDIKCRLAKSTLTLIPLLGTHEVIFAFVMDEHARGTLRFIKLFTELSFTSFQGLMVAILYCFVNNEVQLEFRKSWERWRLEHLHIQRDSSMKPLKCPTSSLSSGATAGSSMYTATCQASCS

SMILES | EC50 (GLP-1R; Table 3) [nM] | EC50 (GLP-1R; Table 3A) [nM] | Emax (GLP-1R; Table 3) [%] | Emax (GLP-1R; Table 3A) [%] | EC50 (GIP-R; Table 3) [nM] | EC50 (GIP-R; Table 3A) [nM] | Emax (GIP-R; Table 3) [%] | Emax (GIP-R; Table 3A) [%] | Emax at 1 µM (GLP-1R; read-out: (Emax) GLP-1R at 1 μM, Table 3) [%] | Emax at 1 µM (GLP-1R; read-out: (Emax) GLP-1R at 1 μM, Table 3A) [%]
CCCCCCCCCCCCCCCC(=O)N[C@@H](CCC(=O)NCCCC[C@H](NC(=O)[C@H](CO)NC(=O)[C@@H]1CCCN1C(=O)[C@@H]1CCCN1C(=O)[C@@H]1CCCN1C(=O)[C@H](C)NC(=O)CNC(=O)[C@H](CO)NC(=O)[C@H](CO)NC(=O)[C@@H]1CCCN1C(=O)CNC(=O)CNC(=O)[C@H](C)NC(=O)[C@H](CC(C)C)NC(=O)[C@H](CC(C)C)NC(=O)[C@H](Cc1c[nH]c2ccccc12)NC(=O)[C@H](CC(N)=O)NC(=O)[C@@H](NC(=O)[C@H](Cc1ccccc1)NC(=O)[C@H](CCC(=O)O)NC(=O)C(C)(C)NC(=O)[C@H](C)NC(=O)[C@H](C)NC(=O)[C@H](CCC(N)=O)NC(=O)[C@H](CCCCN)NC(=O)[C@H](CC(=O)O)NC(=O)[C@H](CC(C)C)NC(=O)[C@H](Cc1ccc(O)cc1)NC(=O)[C@@H](NC(=O)[C@H](CO)NC(=O)[C@H](Cc1ccc(O)cc1)NC(=O)[C@H](CC(=O)O)NC(=O)[C@H](CO)NC(=O)[C@@H](NC(=O)[C@H](Cc1ccccc1)NC(=O)[C@@H](NC(=O)CNC(=O)[C@H](CCC(=O)O)NC(=O)CSCC(=O)NCCN1C(=O)[C@H]2CCC[C@H]2C1=O)[C@@H](C)O)[C@@H](C)O)[C@@H](C)CC)C(C)C)C(N)=O)C(=O)O [Compound 103] | 10 to 100 | 10 to 100 | 95 | 95 | 1 to 10 | 1 to 10 | 68 | 68 | – | –
CC[C@H](C)[C@H](NC(=O)[C@H](CO)NC(=O)[C@H](Cc1ccc(O)cc1)NC(=O)[C@H](CC(=O)O)NC(=O)[C@H](CO)NC(=O)[C@@H](NC(=O)[C@H](Cc1ccccc1)NC(=O)[C@@H](NC(=O)CNC(=O)[C@H](CCC(=O)O)NC(=O)CSCC(=O)NCCN1C(=O)CCc2cccnc21)[C@@H](C)O)[C@@H](C)O)C(=O)N[C@@H](Cc1ccc(O)cc1)C(=O)N[C@@H](CC(C)C)C(=O)N[C@@H](CC(=O)O)C(=O)N[C@@H](CCCCN)C(=O)N[C@@H](CCC(N)=O)C(=O)N[C@@H](C)C(=O)N[C@@H](C)C(=O)NC(C)(C)C(=O)N[C@@H](CCC(=O)O)C(=O)N[C@@H](Cc1ccccc1)C(=O)N[C@H](C(=O)N[C@@H](CC(N)=O)C(=O)N[C@@H](Cc1c[nH]c2ccccc12)C(=O)N[C@@H](CC(C)C)C(=O)N[C@@H](CC(C)C)C(=O)N[C@@H](C)C(=O)NCC(=O)NCC(=O)N1CCC[C@H]1C(=O)N[C@@H](CO)C(=O)N[C@@H](CO)C(=O)NCC(=O)N[C@@H](C)C(=O)N1CCC[C@H]1C(=O)N1CCC[C@H]1C(=O)N1CCC[C@H]1C(=O)N[C@@H](CO)C(=O)N[C@@H](CCCCN)C(N)=O)C(C)C [Compound 106] | 10 to 100 | 10 to 100 | 95 | 95 | 10 to 100 | 10 to 100 | 37 | 37 | – | –
CC[C@H](C)[C@H](NC(=O)[C@H](CO)NC(=O)[C@H](Cc1ccc(O)cc1)NC(=O)[C@H](CC(=O)O)NC(=O)[C@H](CO)NC(=O)[C@@H](NC(=O)[C@H](Cc1ccccc1)NC(=O)[C@@H](NC(=O)CNC(=O)[C@H](CCC(=O)O)NC(=O)CSCC(=O)NCCN1C(=O)c2ccc([N+](=O)[O-])cc2C1=O)[C@@H](C)O)[C@@H](C)O)C(=O)N[C@@H](Cc1ccc(O)cc1)C(=O)N[C@@H](CC(C)C)C(=O)N[C@@H](CC(=O)O)C(=O)N[C@@H](CCCCN)C(=O)N[C@@H](CCC(N)=O)C(=O)N[C@@H](C)C(=O)N[C@@H](C)C(=O)NC(C)(C)C(=O)N[C@@H](CCC(=O)O)C(=O)N[C@@H](Cc1ccccc1)C(=O)N[C@H](C(=O)N[C@@H](CC(N)=O)C(=O)N[C@@H](Cc1c[nH]c2ccccc12)C(=O)N[C@@H](CC(C)C)C(=O)N[C@@H](CC(C)C)C(=O)N[C@@H](C)C(=O)NCC(=O)NCC(=O)N1CCC[C@H]1C(=O)N[C@@H](CO)C(=O)N[C@@H](CO)C(=O)NCC(=O)N[C@@H](C)C(=O)N1CCC[C@H]1C(=O)N1CCC[C@H]1C(=O)N1CCC[C@H]1C(=O)N[C@@H](CO)C(=O)N[C@@H](CCCCN)C(N)=O)C(C)C [Compound 107] | 10 to 100 | 10 to 100 | 57 | 57 | 0.1 to 1 | 0.1 to 1 | 124 | 124 | – | –
CC[C@H](C)[C@H](NC(=O)[C@H](CO)NC(=O)[C@H](Cc1ccc(O)cc1)NC(=O)[C@H](CC(=O)O)NC(=O)[C@H](CO)NC(=O)[C@@H](NC(=O)[C@H](Cc1ccccc1)NC(=O)[C@@H](NC(=O)CNC(=O)[C@H](CCC(=O)O)NC(=O)CSCC(=O)NCCN1C(=O)c2cccc([N+](=O)[O-])c2C1=O)[C@@H](C)O)[C@@H](C)O)C(=O)N[C@@H](Cc1ccc(O)cc1)C(=O)N[C@@H](CC(C)C)C(=O)N[C@@H](CC(=O)O)C(=O)N[C@@H](CCCCN)C(=O)N[C@@H](CCC(N)=O)C(=O)N[C@@H](C)C(=O)N[C@@H](C)C(=O)NC(C)(C)C(=O)N[C@@H](CCC(=O)O)C(=O)N[C@@H](Cc1ccccc1)C(=O)N[C@H](C(=O)N[C@@H](CC(N)=O)C(=O)N[C@@H](Cc1c[nH]c2ccccc12)C(=O)N[C@@H](CC(C)C)C(=O)N[C@@H](CC(C)C)C(=O)N[C@@H](C)C(=O)NCC(=O)NCC(=O)N1CCC[C@H]1C(=O)N[C@@H](CO)C(=O)N[C@@H](CO)C(=O)NCC(=O)N[C@@H](C)C(=O)N1CCC[C@H]1C(=O)N1CCC[C@H]1C(=O)N1CCC[C@H]1C(=O)N[C@@H](CO)C(=O)N[C@@H](CCCCN)C(N)=O)C(C)C [Compound 108] | > 1000 | > 1000 | – | – | 10 to 100 | 10 to 100 | 69 | 69 | 18 | 18
CC[C@H](C)[C@H](NC(=O)[C@H](CO)NC(=O)[C@H](Cc1ccc(O)cc1)NC(=O)[C@H](CC(=O)O)NC(=O)[C@H](CO)NC(=O)[C@@H](NC(=O)[C@H](Cc1ccccc1)NC(=O)[C@@H](NC(=O)CNC(=O)[C@H](CCC(=O)O)NC(=O)CSCC(=O)NCCN1C(=O)[C@H]2C[C@H]2C1=O)[C@@H](C)O)[C@@H](C)O)C(=O)N[C@@H](Cc1ccc(O)cc1)C(=O)N[C@@H](CC(C)C)C(=O)N[C@@H](CC(=O)O)C(=O)N[C@@H](CCCCN)C(=O)N[C@@H](CCC(N)=O)C(=O)N[C@@H](C)C(=O)N[C@@H](C)C(=O)NC(C)(C)C(=O)N[C@@H](CCC(=O)O)C(=O)N[C@@H](Cc1ccccc1)C(=O)N[C@H](C(=O)N[C@@H](CC(N)=O)C(=O)N[C@@H](Cc1c[nH]c2ccccc12)C(=O)N[C@@H](CC(C)C)C(=O)N[C@@H](CC(C)C)C(=O)N[C@@H](C)C(=O)NCC(=O)NCC(=O)N1CCC[C@H]1C(=O)N[C@@H](CO)C(=O)N[C@@H](CO)C(=O)NCC(=O)N[C@@H](C)C(=O)N1CCC[C@H]1C(=O)N1CCC[C@H]1C(=O)N1CCC[C@H]1C(=O)N[C@@H](CO)C(=O)N[C@@H](CCCCN)C(N)=O)C(C)C [Compound 109] | 1 to 10 | 1 to 10 | 101 | 101 | 10 to 100 | 10 to 100 | 36 | 36 | – | –
CC[C@H](C)[C@H](NC(=O)[C@H](CO)NC(=O)[C@H](Cc1ccc(O)cc1)NC(=O)[C@H](CC(=O)O)NC(=O)[C@H](CO)NC(=O)[C@@H](NC(=O)[C@H](Cc1ccccc1)NC(=O)[C@@H](NC(=O)CNC(=O)[C@H](CCC(=O)O)NC(=O)CSCC(=O)NCCN1C(=O)[C@@H]2[C@H](C1=O)C2(C)C)[C@@H](C)O)[C@@H](C)O)C(=O)N[C@@H](Cc1ccc(O)cc1)C(=O)N[C@@H](CC(C)C)C(=O)N[C@@H](CC(=O)O)C(=O)N[C@@H](CCCCN)C(=O)N[C@@H](CCC(N)=O)C(=O)N[C@@H](C)C(=O)N[C@@H](C)C(=O)NC(C)(C)C(=O)N[C@@H](CCC(=O)O)C(=O)N[C@@H](Cc1ccccc1)C(=O)N[C@H](C(=O)N[C@@H](CC(N)=O)C(=O)N[C@@H](Cc1c[nH]c2ccccc12)C(=O)N[C@@H](CC(C)C)C(=O)N[C@@H](CC(C)C)C(=O)N[C@@H](C)C(=O)NCC(=O)NCC(=O)N1CCC[C@H]1C(=O)N[C@@H](CO)C(=O)N[C@@H](CO)C(=O)NCC(=O)N[C@@H](C)C(=O)N1CCC[C@H]1C(=O)N1CCC[C@H]1C(=O)N1CCC[C@H]1C(=O)N[C@@H](CO)C(=O)N[C@@H](CCCCN)C(N)=O)C(C)C [Compound 110] | 10 to 100 | 10 to 100 | 88 | 88 | 10 to 100 | 10 to 100 | 33 | 33 | – | –
